Experimental data reported in US10335518B2, “Catheter locking formulation and method to prepare same” (priority 2013, dated 2019).
Read-outs that look alike come from different tables or passages of the source.

Assays:
[1] = no concentration stated
[2] = cited from earlier work

COc1cc(Cc2cnc(N)nc2N)cc(OC)c1OC [Trimethoprim]
solubility in ethanol (qualitative) [1]: only slightly soluble | solubility in propylene glycol (qualitative) [1]: soluble | solubility in water (qualitative) [1]: almost completely insoluble | solubility ([2]; 95% Ethanol): 0.81 g/100 mL | solubility ([2]; Absolute Ethanol): 0.35 g/100 mL | solubility ([2]; Acetone): 0.35 g/100 mL | solubility ([2]; Benzene): 0.002 g/100 mL | solubility ([2]; Benzyl Alcohol): 7.29 g/100 mL | solubility ([2]; Carbon Tetra-Chloride): 0.002 g/100 mL | solubility ([2]; Choroform): 1.82 g/100 mL | solubility ([2]; Diethyl Ether): 0.00 g/100 mL | solubility ([2]; Dimethyl Acetamide): 13.86 g/100 mL | solubility ([2]; Methanol): 1.21 g/100 mL | solubility ([2]; Petroleum Ether): 0.02 g/100 mL | solubility ([2]; Propylene Glycol): 2.57 g/100 mL | solubility ([2]; Water): 0.04 g/100 mL
